Reference: patent publication US8952024B2, “Herbicidal pyrimidone derivatives” (E I du Pont de Nemours and Company, priority 2009, dated 2015)

Columns and labels:
Assay in all cases: Test B pre-/postemergence plant response
Assay type in all cases: in vivo
[1] = test system: downy bromegrass (Bromus tectorum)
Excerpt: (§1) Seeds of plant species selected from blackgrass (Alopecurus myosuroides), downy bromegrass (Bromus tectorum), green foxtail (Setaria viridis), Italian ryegrass (Lolium multiflorum), wheat (Triticum aestivum), wild oat (Avena fatua), deadnettle (henbit deadnettle, Lamium amplexicaule), galium (catchweed bedstraw, Galium aparine), bermudagrass (Cynodon dactylon), Surinam grass (Brachiaria decumbens), cocklebur (Xanthium strumarium), corn (Zea mays), large crabgrass (Digitaria sanguinalis), woolly cupgrass (Eriochloa villosa), giant foxtail (Setaria faberii), goosegrass (Eleusine indica), johnsongrass (Sorghum halepense), kochia (Kochia scoparia), lambsquarters (Chenopodium album), morningglory (Ipomoea coccinea), nightshade (eastern black nightshade, Solanum ptycanthum), yellow nutsedge (Cyperus esculentus), pigweed (Amaranthus retroflexus), ragweed (common ragweed, Ambrosia elatior), Russian thistle (Salsola kali), soybean (Glycine max), sunflower (common oilseed sunflower, Helianthus annuus) and velvetleaf (Abutilon theophrasti) were planted into a blend of loam soil and sand and treated preemergence with test compounds formulated in a non-phytotoxic solvent mixture which included a surfactant.
(§2) At the same time, plants selected from these crop and weed species and also winter barley (Hordeum vulgare), canarygrass (Phalaris minor), chickweed (Stellaria media) and windgrass (Apera spica-venti) were planted in pots containing Redi-Earth® planting medium (Scotts Company, 14111 Scottslawn Road, Marysville, Ohio 43041) comprising spaghnum peat moss, vermiculite, wetting agent and starter nutrients and treated with postemergence applications of some of the test chemicals formulated in the same manner. Plants ranged in height from 2 to 18 cm (1- to 4-leaf stage) for postemergence treatments.
(§3) Treated plants and controls were maintained in a greenhouse for 13 to 15 days, after which time all treated plants were visually evaluated and compared to controls. Plant response ratings, summarized in Table B, are based on a scale of 0 to 100 where 0 is no effect and 100 is complete control. A dash (-) response means no test result.

soybean (Glycine max) = test system: soybean (Glycine max)
Excerpt: as §1, §2, §3

[2] = test system: large crabgrass (Digitaria sanguinalis)
Excerpt: as §1, §2, §3

[3] = test system: morningglory (Ipomoea coccinea)
Excerpt: as §1, §2, §3

[4] = test system: velvetleaf (Abutilon theophrasti)
Excerpt: as §1, §2, §3

kochia (Kochia scoparia) = conditions: Postemergence; for Plant response rating, Kochia: scale 0 (no effect) to 100 (complete control); for Kochia plant response rating: 250 g ai/ha, scale 0 to 100
Excerpt: as §1, §2, §3

[5] = test system: cocklebur (Xanthium strumarium); conditions: Preemergence
Excerpt: as §1, §2, §3

[6] = test system: woolly cupgrass (Eriochloa villosa)
Excerpt: as §1, §2, §3

[7] = test system: bermudagrass (Cynodon dactylon)
Excerpt: as §1, §2, §3

[8] = test system: yellow nutsedge (Cyperus esculentus)
Excerpt: as §1, §2, §3

[9] = test system: Italian ryegrass (Lolium multiflorum)
Excerpt: as §1, §2, §3

[10] = test system: wheat (Triticum aestivum)
Excerpt: as §1, §2, §3

[11] = 250 g ai/ha, Preemergence, 0 to 100 scale
[12] = Postemergence, 31 g ai/ha, scale 0 to 100 (0 no effect, 100 complete control)
[13] = Postemergence, 62 g ai/ha, scale 0 (no effect) to 100 (complete control), 13 to 15 days
[14] = Postemergence, 125 g ai/ha, visual rating after 13 to 15 days, scale 0 (no effect) to 100 (complete control)
[15] = Postemergence, 250 g ai/ha, scale 0 to 100
[16] = Preemergence, 31 g ai/ha, scale 0 to 100 (0 no effect, 100 complete control)
[17] = Preemergence, 62 g ai/ha, scale 0 to 100 (0 no effect, 100 complete control)
[18] = Preemergence, 125 g ai/ha, 0 to 100 scale
[19] = 125 g ai/ha, visual rating after 13 to 15 days

With `Cc1ccccc1-n1c(-c2cccc(Cl)c2)ncc(C(=O)C2=C(O)CCCC2=O)c1=O` [Compound 36] the “Plant response rating, Bromegrass, Downy” value [1, 11] was 10, the “Plant response rating, Bromegrass, Downy” value [1, 12] was 30 and the “Plant response rating, Bromegrass, Downy” value [1, 13] was 30. For the same compound, the “Plant response rating, Bromegrass, Downy” value [1, 14] was 45, the “Bromegrass, Downy plant response rating” value [1, 15] was 65 and the “Plant response rating, Bromegrass, Downy” value [1, 16] was 0. For the same compound, the “Plant response rating, Bromegrass, Downy” value [1, 17] was 0, the “Bromegrass, Downy plant response rating” value [1, 18] was 0 and the “Plant response rating, Soybean” value (soybean (Glycine max); [11]) was 40. For the same compound, the “Plant response rating, Soybean” value (soybean (Glycine max); [13]) was 98, the “Plant response rating, Soybean” value (soybean (Glycine max); [14]) was 100 and the “Plant response rating, Soybean” value (soybean (Glycine max); [16]) was 0. For the same compound, the “Soybean plant response rating” value (soybean (Glycine max); [18]) was 0, the “Plant response rating, Crabgrass, Large” value [2, 11] was 100 and the “Plant response rating, Crabgrass, Large” value [2, 12] was 90. For the same compound, the “Plant response rating, Crabgrass, Large” value [2, 13] was 95, the “Plant response rating, Crabgrass, Large” value [2, 14] was 95 and the “Crabgrass, Large plant response rating” value [2, 15] was 98. The “Plant response rating, Crabgrass, Large” value [2, 16] was 20, the “Plant response rating, Crabgrass, Large” value [2, 17] was 90 and the “Crabgrass, Large plant response rating” value [2, 18] was 100. For the same compound, the “Plant response rating, Morningglory” value [3, 11] was 20, the “Plant response rating, Morningglory” value [3, 13] was 70 and the “Plant response rating, Morningglory” value [3, 14] was 75. For the same compound, the “Plant response rating, Morningglory” value [3, 16] was 0, the “Plant response rating, Morningglory” value [3, 17] was 0 and the “Morningglory plant response rating” value [3, 18] was 0. For the same compound, the “Plant response rating, Velvetleaf” value [4, 11] was 100, the “Plant response rating, Velvetleaf” value [4, 13] was 100 and the “Plant response rating, Velvetleaf” value [4, 14] was 100. For the same compound, the “Plant response rating, Velvetleaf” value [4, 16] was 65, the “Velvetleaf plant response rating” value [4, 18] was 100 and the “Plant response rating, Kochia” value (kochia (Kochia scoparia); 62 g ai/ha, 13 to 15 days) was 0. The “Plant response rating, Kochia” value (kochia (Kochia scoparia); [19]) was 60, the “Kochia plant response rating” value (kochia (Kochia scoparia)) was 65 and the “Plant response rating, Cocklebur” value ([5]; 250 g ai/ha, 0 to 100 scale) was 80. The “Plant response rating, Cupgrass, Woolly” value [6, 11] was 65, the “Plant response rating, Cupgrass, Woolly” value [6, 12] was 85 and the “Plant response rating, Cupgrass, Woolly” value [6, 13] was 90. For the same compound, the “Plant response rating, Cupgrass, Woolly” value [6, 14] was 95, the “Cupgrass, Woolly plant response rating” value [6, 15] was 98 and the “Plant response rating, Cupgrass, Woolly” value [6, 16] was 0. The “Plant response rating, Cupgrass, Woolly” value [6, 17] was 0, the “Cupgrass, Woolly plant response rating” value [6, 18] was 10 and the “Plant response rating, Bermudagrass” value [7, 11] was 100. For the same compound, the “Plant response rating, Bermudagrass” value [7, 12] was 90, the “Plant response rating, Bermudagrass” value [7, 13] was 98 and the “Plant response rating, Bermudagrass” value [7, 14] was 100. The “Bermudagrass plant response rating” value [7, 15] was 100, the “Plant response rating, Bermudagrass” value [7, 16] was 95 and the “Plant response rating, Bermudagrass” value [7, 17] was 100. The “Bermudagrass plant response rating” value [7, 18] was 100, the “Plant response rating, Nutsedge, Yellow” value [8, 11] was 75 and the “Plant response rating, Nutsedge, Yellow” value [8, 13] was 20. The “Plant response rating, Nutsedge, Yellow” value [8, 14] was 25, the “Plant response rating, Nutsedge, Yellow” value [8, 16] was 0 and the “Nutsedge, Yellow plant response rating” value [8, 18] was 40. For the same compound, the “Plant response rating, Ryegrass, Italian” value [9, 11] was 0, the “Plant response rating, Ryegrass, Italian” value [9, 13] was 5 and the “Plant response rating, Ryegrass, Italian” value [9, 14] was 10. For the same compound, the “Plant response rating, Ryegrass, Italian” value [9, 16] was 0, the “Ryegrass, Italian plant response rating” value [9, 18] was 0 and the “Plant response rating, Wheat” value [10, 11] was 0. For the same compound, the “Plant response rating, Wheat” value [10, 13] was 5, the “Plant response rating, Wheat” value [10, 14] was 5 and the “Plant response rating, Wheat” value [10, 16] was 0. For the same compound, the “Wheat plant response rating” value [10, 18] was 0.
For `O=C1CCCC(O)=C1C(=O)c1cnc(-c2ccccc2)n(-c2cccc(Br)c2)c1=O` [Compound 38], the “Plant response rating, Bromegrass, Downy” value [1, 11] was 40, the “Plant response rating, Bromegrass, Downy” value [1, 12] was 50 and the “Plant response rating, Bromegrass, Downy” value [1, 13] was 70. For the same compound, the “Plant response rating, Bromegrass, Downy” value [1, 14] was 85, the “Bromegrass, Downy plant response rating” value [1, 15] was 85 and the “Plant response rating, Bromegrass, Downy” value [1, 16] was 0. For the same compound, the “Plant response rating, Bromegrass, Downy” value [1, 17] was 0, the “Bromegrass, Downy plant response rating” value [1, 18] was 5 and the “Plant response rating, Soybean” value (soybean (Glycine max); [11]) was 75. For the same compound, the “Plant response rating, Soybean” value (soybean (Glycine max); [13]) was 85, the “Plant response rating, Soybean” value (soybean (Glycine max); [14]) was 90 and the “Plant response rating, Soybean” value (soybean (Glycine max); [16]) was 0. For the same compound, the “Soybean plant response rating” value (soybean (Glycine max); [18]) was 0, the “Plant response rating, Crabgrass, Large” value [2, 11] was 100 and the “Plant response rating, Crabgrass, Large” value [2, 12] was 90. For the same compound, the “Plant response rating, Crabgrass, Large” value [2, 13] was 90, the “Plant response rating, Crabgrass, Large” value [2, 14] was 98 and the “Crabgrass, Large plant response rating” value [2, 15] was 100. The “Plant response rating, Crabgrass, Large” value [2, 16] was 60, the “Plant response rating, Crabgrass, Large” value [2, 17] was 90 and the “Crabgrass, Large plant response rating” value [2, 18] was 100. The “Plant response rating, Morningglory” value [3, 11] was 100, the “Plant response rating, Morningglory” value [3, 13] was 70 and the “Plant response rating, Morningglory” value [3, 14] was 75. The “Plant response rating, Morningglory” value [3, 16] was 0, the “Plant response rating, Morningglory” value [3, 17] was 0 and the “Morningglory plant response rating” value [3, 18] was 0. For the same compound, the “Plant response rating, Velvetleaf” value [4, 11] was 100, the “Plant response rating, Velvetleaf” value [4, 13] was 100 and the “Plant response rating, Velvetleaf” value [4, 14] was 100. The “Plant response rating, Velvetleaf” value [4, 16] was 55, the “Velvetleaf plant response rating” value [4, 18] was 98 and the “Plant response rating, Kochia” value (kochia (Kochia scoparia); 62 g ai/ha, 13 to 15 days) was 80. The “Plant response rating, Kochia” value (kochia (Kochia scoparia); [19]) was 100, the “Kochia plant response rating” value (kochia (Kochia scoparia)) was 100 and the “Plant response rating, Cocklebur” value ([5]; 250 g ai/ha, 0 to 100 scale) was 90. For the same compound, the “Plant response rating, Cocklebur” value ([5]; 31 g ai/ha, scale 0 to 100 (0 no effect, 100 complete control)) was 0, the “Plant response rating, Cocklebur” value ([5]; 62 g ai/ha, scale 0 to 100 (0 no effect, 100 complete control)) was 10 and the “Cocklebur plant response rating” value ([5]; 125 g ai/ha, 0 to 100 scale) was 25. For the same compound, the “Plant response rating, Cupgrass, Woolly” value [6, 11] was 80, the “Plant response rating, Cupgrass, Woolly” value [6, 12] was 80 and the “Plant response rating, Cupgrass, Woolly” value [6, 13] was 90. For the same compound, the “Plant response rating, Cupgrass, Woolly” value [6, 14] was 95, the “Cupgrass, Woolly plant response rating” value [6, 15] was 100 and the “Plant response rating, Cupgrass, Woolly” value [6, 16] was 0. For the same compound, the “Plant response rating, Cupgrass, Woolly” value [6, 17] was 10, the “Cupgrass, Woolly plant response rating” value [6, 18] was 60 and the “Plant response rating, Bermudagrass” value [7, 11] was 100. The “Plant response rating, Bermudagrass” value [7, 12] was 98, the “Plant response rating, Bermudagrass” value [7, 13] was 100 and the “Plant response rating, Bermudagrass” value [7, 14] was 100. The “Bermudagrass plant response rating” value [7, 15] was 100, the “Plant response rating, Bermudagrass” value [7, 16] was 98 and the “Plant response rating, Bermudagrass” value [7, 17] was 100. For the same compound, the “Bermudagrass plant response rating” value [7, 18] was 100, the “Plant response rating, Nutsedge, Yellow” value [8, 11] was 80 and the “Plant response rating, Nutsedge, Yellow” value [8, 13] was 0. The “Plant response rating, Nutsedge, Yellow” value [8, 14] was 15, the “Plant response rating, Nutsedge, Yellow” value [8, 16] was 10 and the “Nutsedge, Yellow plant response rating” value [8, 18] was 70. The “Plant response rating, Ryegrass, Italian” value [9, 11] was 40, the “Plant response rating, Ryegrass, Italian” value [9, 13] was 50 and the “Plant response rating, Ryegrass, Italian” value [9, 14] was 60. For the same compound, the “Plant response rating, Ryegrass, Italian” value [9, 16] was 0, the “Ryegrass, Italian plant response rating” value [9, 18] was 5 and the “Plant response rating, Wheat” value [10, 11] was 5. The “Plant response rating, Wheat” value [10, 13] was 20, the “Plant response rating, Wheat” value [10, 14] was 40 and the “Plant response rating, Wheat” value [10, 16] was 0. For the same compound, the “Wheat plant response rating” value [10, 18] was 0.
